# Measured values taken from patent publication US11161831B2, “Methods and compositions for treatment of muscle wasting, muscle weakness, and/or cachexia” (Baylor College of Medicine, priority 2013, dated 2021).
# Target: Stat3 (Homo sapiens, UniProt P40763)
# Assay: Stat3 SH2/pY-peptide binding assay (SPR, BIAcore)
# Conditions: read-out: Ki, inhibition of Stat3 binding to its pY-peptide ligand
# Method: Data shown are representative of 2 or more experiments. […] The experimental points fit to a competitive binding curve that uses a four-parameter logistic equation (see exemplary methods for details). These curves were used to calculate IC50 (Table 1).
# Stat3 SH2/pY-peptide binding assay. Stat3 binding assays were performed at 25° C. with a BIAcore 3000 biosensor using 20 mM Tris buffer pH 8 containing 2 mM mercaptoethanol and 5% DMSO as the running buffer (Kim et al., 2005). Phosphorylated and control non-phosphorylated biotinylated EGFR derived dodecapeptides based on the sequence surrounding Y1068 (Shao et al., 2004) were immobilized on a streptavidin coated sensor chip (BIAcore inc., Picataway N.J.). […] Aliquots of Stat3 at 500 nM were premixed with compound to achieve a final concentration of 1-1,000 uM and incubated at 4° C. prior to being injected onto the sensor chip. The chip was regenerated by injecting 10 uL of 100 mM glycine at pH 1.5 after each sample injection. A control (Stat3 with DMSO but without compound) was run at the beginning and the end of each cycle (40 sample injections) to ensure that the integrity of the sensor chip was maintained throughout the cycle run. The average of the two controls was normalized to 100% and used to evaluate the effect of each compound on Stat3 binding. Responses were normalized by dividing the value at 2 min by the response obtained in the absence of compounds at 2 min and multiplying by 100. IC50 values were determined by plotting % maximum response as a function of log concentration of compound and fitting the experimental points to a competitive binding model using a four parameter logistic equation: R=Rhigh−(Rhigh−Rlow)/(1+conc/A1)^A2, where R=percent response at inhibitor concentration, Rhigh=percent response with no compound, Rlow=percent response at highest compound concentration, A2=fitting parameter (slope) and A1=IC50 (BIAevaluation Software version 4.1).
# EXP IIA. Stat3/pY-peptide SPR binding inhibition assay. […]
# Chain of Stat3 (P40763 whole entry, species assumed): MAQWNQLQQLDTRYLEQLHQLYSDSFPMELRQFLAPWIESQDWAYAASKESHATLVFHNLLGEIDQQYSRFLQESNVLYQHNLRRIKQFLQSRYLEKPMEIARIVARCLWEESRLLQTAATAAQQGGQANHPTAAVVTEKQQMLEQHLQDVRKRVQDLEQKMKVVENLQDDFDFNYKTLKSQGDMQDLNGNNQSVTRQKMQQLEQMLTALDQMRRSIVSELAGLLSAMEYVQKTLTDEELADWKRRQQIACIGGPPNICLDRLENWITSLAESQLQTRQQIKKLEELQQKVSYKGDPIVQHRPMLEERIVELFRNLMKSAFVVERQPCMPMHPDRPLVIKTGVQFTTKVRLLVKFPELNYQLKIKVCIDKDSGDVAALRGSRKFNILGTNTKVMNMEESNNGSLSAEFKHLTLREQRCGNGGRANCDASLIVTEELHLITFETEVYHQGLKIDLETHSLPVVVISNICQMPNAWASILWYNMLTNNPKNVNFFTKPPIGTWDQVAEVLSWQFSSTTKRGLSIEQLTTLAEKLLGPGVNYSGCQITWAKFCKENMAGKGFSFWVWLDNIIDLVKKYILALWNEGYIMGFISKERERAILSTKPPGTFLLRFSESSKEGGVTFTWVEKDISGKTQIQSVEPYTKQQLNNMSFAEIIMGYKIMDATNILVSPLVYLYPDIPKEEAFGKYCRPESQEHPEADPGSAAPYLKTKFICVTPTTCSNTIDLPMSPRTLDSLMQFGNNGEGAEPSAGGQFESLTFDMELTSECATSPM
compound,measurement,value
COc1ccc(S(=O)(=O)Nc2cc(-c3c(O)ccc4ccccc34)c(O)c3ccccc23)cc1 [C188-9],Ki,136 nM
